Reference: patent US6150393A (priority 1999, dated 2000)

Target: T1, endogenous human 5-HT2C receptor (Homo sapiens, UniProt P28335)
T1 sequence (P28335 33-458): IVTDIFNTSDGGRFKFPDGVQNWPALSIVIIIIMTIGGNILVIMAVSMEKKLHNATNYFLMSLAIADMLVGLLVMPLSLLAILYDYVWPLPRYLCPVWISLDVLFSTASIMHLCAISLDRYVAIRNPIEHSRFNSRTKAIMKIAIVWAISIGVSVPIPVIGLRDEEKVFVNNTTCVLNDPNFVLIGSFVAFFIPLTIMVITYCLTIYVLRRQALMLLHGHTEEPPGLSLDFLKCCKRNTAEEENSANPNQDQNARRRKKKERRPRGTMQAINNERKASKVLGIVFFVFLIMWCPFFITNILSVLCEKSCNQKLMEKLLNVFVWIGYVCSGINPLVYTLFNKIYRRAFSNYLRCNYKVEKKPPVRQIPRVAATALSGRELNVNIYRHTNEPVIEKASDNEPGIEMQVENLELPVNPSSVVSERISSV
Test: not given
Conditions: 30 μM mianserin, data not shown

Row | inhibition of serotonin-stimulated [35S]GTPγS binding | SMILES
1 | completely inhibited | CN1CCN2c3ccccc3Cc3ccccc3C2C1 (stereo not shown) [mianserin]

Same assay, conditions: data not shown

Row | effect on serotonin response of [35S]GTPγS binding | SMILES
2 | inhibits this response | CN1CCN2c3ccccc3Cc3ccccc3C2C1 (stereo not shown) [mianserin]

Same assay, conditions: no agonist, data not shown

Row | effect on basal constitutive binding of [35S]GTPγS | SMILES
3 | partial inverse agonist | CN1CCN2c3ccccc3Cc3ccccc3C2C1 (stereo not shown) [mianserin]

Test system: human mutated 5HT2A receptor, AP-3
Test: Receptor-mediated inositol phosphate (IP3) accumulation, AP-3
Type: cell-based
Conditions: 10 μM test compound, triplicate; control without test compound
Protocol: On day one, 1×10^7 293 cells per 150 mm plate were plated out. On day two, two reaction tubes were prepared (the proportions to follow for each tube are per plate): tube A was prepared by mixing 20 μg DNA (e.g., pCMV vector; pCMV vector AP-1 cDNA, etc.) in 1.2 ml serum free DMEM (Irvine Scientific, Irvine, Calif.); tube B was prepared by mixing 120 μl lipofectamine (Gibco BRL) in 1.2 ml serum free DMEM. Tubes A and B were then admixed by inversions (several times), followed by incubation at room temperature for 30-45 min. The admixture is referred to as the "transfection mixture". Plated 293 cells were washed with 1×PBS, followed by addition of 10 ml serum free DMEM. 2.4 ml of the transfection mixture was then added to the cells, followed by incubation for 4 hrs at 37° C./5% CO2. On day 3, cells were trypsinized and counted, followed by plating of 1×10^6 cells/well (poly D-lysine treated 12-well plates). Cells were permitted to adhere to the wells, followed by one wash with 1×PBS. Thereafter, 0.5 μCi ^3 H-inositol in 1 ml inositol-free DMEM was added per well. Protocol B.
On day 4, the cells were washed with 0.5 ml PBS and then 0.45 ml of assay medium was added containing inositol-free/serum free media, 10 μM pargyline, 10 mM lithium chloride, or 0.4 ml of assay medium and 50 ul of 10× ketanserin (ket) to a final concentration of 10 μM. The cells were then incubated for 30 minutes at 37° C. Then the cells were washed with 0.5 ml PBS and 200 ul of fresh/ice cold stop solution (1M KOH; 18 mM Na-borate; 3.8 mM EDTA) was added/well. The solution was kept on ice for 5-10 minutes or until the cells were lysed and then neutralized by 200 μl of fresh/ice cold neutralization sol. (7.5% HCL). The lysate was then transferred into 1.5 ml microcentrifuge tubes and 1 ml of chloroform/methanol (1:2) was added/tube. The solution was vortexed for 15 seconds and the upper phase was applied to a Biorad AG1-X8 anion exchange resin (100-200 mesh). The resin was washed with water and 0.9 ml of the upper phase was loaded onto the column. The column was washed with 10 mls of 5 mM myo-inositol and 10 ml of 5 mM Na-borate/60 mM Na-formate. The inositol trisphosphates were eluted into scintillation vials containing 10 ml of scintillation cocktail with 2 ml of 0.1 M formic acid/1 M ammonium formate. The columns were regenerated by washing with 10 ml of 0.1 M formic acid/3M ammonium formate and rinsed twice with dd H2 O and stored at room temperature in water.
Candidate compound identified in the assays of Examples 9a-9c were then evaluated for inositol phosphate accumulation, following the protocol of Example 5 ([…] expressing human mutated 5HT2A receptor, AP-3), modified as follows: tube A was prepared by mixing 16 μg DNA (e.g., pCMV vector; pCMV vector AP-1 cDNA, etc.) in 1.0 ml serum free DMEM (Irvine Scientific, Irvine, Calif.); tube B was prepared by mixing 60 μl lipofectamine (Gibco BRL) in 1.0 ml serum free DMEM. Tubes A and B were then admixed by inversions (several times), followed by incubation at room temperature for 30 min. The admixture is referred to as the "transfection mixture". Plated 293 cells were washed with 10 ml Serum Free DMEM, followed by addition of 11 ml Serum Free DMEM. 2.0 ml of the transfection mixture was then added to the cells, followed by incubation for 5 hrs at 37° C./5% CO2. On day 3, cells were trypsinized and counted, followed by plating of 1×10^6 cells/well (12-well plates). Cells were permitted to adhere to the wells for 8 hrs, followed by one wash with 1×PBS. Thereafter, 0.5 μCi ^3 H-inositol in 1 ml inositol-free DMEM was added per well.
On day 4, the cells were washed with 1.5 ml PBS and then 0.9 ml of assay medium was added containing inositol-free/serum free media, 10 μM pargyline, 10 mM lithium chloride, for 5 min in 37° C./5% CO2 followed by 100 μl addition of candidate compound diluted in the same material. The cells were then incubated for 120 minutes at 37° C. […]

Row | SMILES | IP3 % of Control [%]
4 | CSc1ccc(NC(=O)Nc2cccc(-c3nn(C)cc3Br)c2)cc1 [Compound 116079, N-[3-(4-bromo-1-methylpyrazol-3-yl)phenyl][(4-methylthiophenyl)amino]carboxamide] | 16
5 | Cn1cc(Br)c(-c2cccc(NC(=O)Nc3ccccc3OC(F)(F)F)c2)n1 [Compound 116087, {[3-(4-bromo-1-methylpyrazol-3-yl)phenyl]amino}-N-[2-(trifluoromethoxy)phenyl]carboxamide] | 11
6 | Cn1cc(Br)c(-c2cccc(NC(=O)Nc3ccccc3[N+](=O)[O-])c2)n1 [Compound 116089, {[3-(4-bromo-1-methylpyrazol-3-yl)phenyl]amino}-N-(2-nitrophenyl)carboxamide] | 27
7 | COc1ccc(NC(=O)Nc2cccc(-c3nn(C)cc3Br)c2)cc1 [Compound 116091, {[3-(4-bromo-1-methylpyrazol-3-yl)phenyl]amino}-N-(4-methoxyphenyl)carboxamide] | 12
8 | Cc1ccccc1NC(=O)Nc1cccc(-c2nn(C)cc2Br)c1 [Compound 116092, {[3-(4-bromo-1-methylpyrazol-3-yl)phenyl]amino}-N-(2-methylphenyl)carboxamide] | 32
9 | Cn1cc(Br)c(-c2cccc(NC(=O)Nc3ccc(C(F)(F)F)cc3)c2)n1 [Compound 116097, {[3-(4-bromo-1-methylpyrazol-3-yl)phenyl]amino}-N-[4-(trifluoromethyl)phenyl]carboxamide] | 11
10 | Cn1cc(Br)c(-c2cccc(NC(=O)Nc3cccc(Cl)c3)c2)n1 [Compound 116105, {[3-(4-bromo-1-methylpyrazol-3-yl)phenyl]amino}-N-(3-chlorophenyl)carboxamide] | 11
11 | Cn1cc(Br)c(-c2cccc(NC(=O)Nc3ccccc3Cl)c2)n1 [Compound 116108, {[3-(4-bromo-1-methylpyrazol-3-yl)phenyl]amino}-N-(2-chlorophenyl)carboxamide] | 6
12 | CC(C)c1ccc(NC(=O)Nc2cccc(-c3nn(C)cc3Br)c2)cc1 [Compound 116110, {[3-(4-bromo-1-methylpyrazol-3-yl)phenyl]amino}-N-[4-(methylethyl)phenyl]carboxamide] | 7
13 | COc1cccc(NC(=O)Nc2cccc(-c3nn(C)cc3Br)c2)c1 [Compound 116111, {[3-(4-bromo-1-methylpyrazol-3-yl)phenyl]amino}-N-(3-methoxyphenyl)carboxamide] | 7
14 | Cc1cccc(NC(=O)Nc2cccc(-c3nn(C)cc3Br)c2)c1 [Compound 116112, {[3-(4-bromo-1-methylpyrazol-3-yl)phenyl]amino}-N-(3-methylphenyl)carboxamide] | 14
15 | Cn1cc(Br)c(-c2cccc(NC(=O)Nc3ccc(C(C)(C)C)cc3)c2)n1 [Compound 116119, N-[4-(tert-butyl)phenyl]{[3-(4-bromo-1-methylpyrazol-3-yl)phenyl]amino}carboxamide] | 17
16 | CN(C)c1ccc(NC(=O)Nc2cccc(-c3nn(C)cc3Br)c2)cc1 [Compound 116122, N-[4-(dimethylamino)phenyl]{[3-(4-bromo-1-methylpyrazol-3-yl)phenyl]amino}carboxamide] | 9
17 | Cc1c(Cl)cc(NC(=O)Nc2cccc(-c3nn(C)cc3Br)c2)cc1Cl [Compound 116138, N-(3,5-dichloro-4-methylphenyl){[3-(4-bromo-1-methylpyrazol-3-yl)phenyl]amino}carboxamide] | 23
18 | Cn1cc(Br)c(-c2cccc(NC(=O)Nc3ccc(SC(F)(F)F)cc3)c2)n1 [Compound 116139, {[3-(4-bromo-1-methylpyrazol-3-yl)phenyl]amino}-N-[4-(trifluoromethylthio)phenyl]carboxamide] | 12
19 | Cn1cc(Br)c(-c2cccc(NC(=O)Nc3ccccc3F)c2)n1 [Compound 116144, {[3-(4-bromo-1-methylpyrazol-3-yl)phenyl]amino}-N-(2-fluorophenyl)carboxamide] | 12
20 | Cn1cc(Br)c(-c2cccc(NC(=O)Nc3ccccc3C(N)=O)c2)n1 [Compound 116145, 2-({[3-(4-bromo-1-methylpyrazol-3-yl)phenyl]amino}carbonylamino)benzamide] | 31
21 | Cn1cc(Br)c(-c2cccc(NC(=O)Nc3ccc(C#N)cc3)c2)n1 [Compound 116147, {[3-(4-bromo-1-methylpyrazol-3-yl)phenyl]amino}-N-(4-cyanophenyl)carboxamide] | 12
22 | Cn1cc(Br)c(-c2cccc(NC(=O)Nc3ccccc3C#N)c2)n1 [Compound 116148, {[3-(4-bromo-1-methylpyrazol-3-yl)phenyl]amino}-N-(2-cyanophenyl)carboxamide] | 30

Same assay, conditions: AP-3; Example 10

Row | SMILES | IC50 [nM]
23 | Cn1cc(Br)c(-c2cccc(NC(=O)Nc3ccc(OC(F)(F)F)cc3)c2)n1 [Compound 103487, N-[3-(4-bromo-1-methylpyrazol-3-yl)phenyl][{(4-trifluoromethoxy)phenyl}amino]carboxamide] | 90

Test system: not listed separately
Test: Bar catalepsy test in rats (extrapyramidal side effect analysis)
Type: in vivo, rat (male Sprague-Dawley)
Conditions: 0.8 mg/kg

Row | SMILES | induction of catalepsy | time spent on the bar
24 | O=C(CCCN1CCC(O)(c2ccc(Cl)cc2)CC1)c1ccc(F)cc1 [haloperidol, reference compound] | induces catalepsy in rats | significant increase in time spent on the bar
